Measured values taken from PMC10751773 (JACS Au, 2023).

Legend:
piscidin 3 (P3) = piscidin 3 (P3) (Morone chrysops x Morone saxatilis, UniProt P0C006); assay: circular dichroism titration at […] nm, one-site two-state fit; assay type: binding
piscidin 1 (P1) = piscidin 1 (P1) (Morone saxatilis, UniProt Q8UUG0); assay: as above; assay type: binding
Chain of piscidin 1 (P1) (Q8UUG0 23-44): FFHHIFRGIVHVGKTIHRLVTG

Chain of piscidin 3 (P3) (P0C006 whole entry): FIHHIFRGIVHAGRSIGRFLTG

CCCCCCOC(=O)CCCCCCC/C=C\CCCCCC[C@H](C)O[C@@H]1O[C@H](CO)[C@@H](O)[C@H](O)[C@H]1O[C@@H]1O[C@H](CO)[C@@H](O)[C@H](O)[C@H]1O [SL-HE]
Kd (piscidin 3 (P3)): 391.5 ± 1.5 µM | Kd (piscidin 1 (P1)): 206 ± 5 µM
